# Assays:
# JEG-3 cells [1] = test: JEG-3 protocol: [3H]-thymidine incorporation / proliferation (leptin assay in non-recombinant system); type: cell-based; conditions: FIG. 6
# Description: Leptin Assay in Non-Recombinant System
# It seems that overexpression of the receptor (as well as the possibility for different drugs to act on different parts of the signaling pathway triggered by leptin association with its receptor) results in most cases in the absence of activity of the drugs tested.
# The leptin receptor expression in non-recombinant system is often fluctuating and care must be given to identify a system where signal stability remains within experiments. Using such a system, leptin receptor antagonist mimetics could be identified by evaluating is their action vs. leptin (see below).
# Leptin is produced chiefly in adipose cells, but in humans, mRNA encoding leptin is also present in the placenta. Here, leptin might play an important proliferative role in the microvasculature. The possibility to use this hypothesis in a native cell line was evaluated.
# In JEG-3 cells (choriocarcinoma cell line) leptin is able to stimulate proliferation up to 3 fold (Biol. Reprod. (2007) 76: 203-10). […] The radioactivity incorporated by the cells is an index of their proliferative activity and is measured in counts per minute (CPM) with a liquid scintillation beta counter. […]
# JEG-3 cells [2] = conditions: Biol. Reprod. (2007) 76: 203-10; cited from earlier work
substance,measurement,setting,value
Leptin: a hormone synthesized in fat cells that is believed to act in the hypothalamus to reduce food intake and body weight,EC50,"JEG-3 cells [1]; JEG-3 cells (choriocarcinoma cell line), read-out: EC50, concentration-dependent increase in [3H]-thymidine incorporation",2.1 nM
same,concentration of maximal effect on [3H]-thymidine incorporation,JEG-3 cells [1]; JEG-3 cells,100 nM
same,stimulation of proliferation,JEG-3 cells [2],up to 3 fold

# Source: patent publication US20110275637A1, “PIPERAZINE DERIVATIVES AND THEIR USE AS LEPTIN RECEPTOR MODULATORS” (priority 2008, published 2011)
